Results taken from ChEMBL document CHEMBL1133531, “Carbonic anhydrase inhibitors: perfluoroalkyl/aryl-substituted derivatives of aromatic/heterocyclic sulfonamides as topical intraocular pressure-lowering agents with prolonged duration of action” (J Med Chem, 2000).

How the values were obtained:
[1] = biological target: T1, Carbonic anhydrase 4 (Bos taurus, UniProt Q95323)
T1 sequence (Q95323 whole entry): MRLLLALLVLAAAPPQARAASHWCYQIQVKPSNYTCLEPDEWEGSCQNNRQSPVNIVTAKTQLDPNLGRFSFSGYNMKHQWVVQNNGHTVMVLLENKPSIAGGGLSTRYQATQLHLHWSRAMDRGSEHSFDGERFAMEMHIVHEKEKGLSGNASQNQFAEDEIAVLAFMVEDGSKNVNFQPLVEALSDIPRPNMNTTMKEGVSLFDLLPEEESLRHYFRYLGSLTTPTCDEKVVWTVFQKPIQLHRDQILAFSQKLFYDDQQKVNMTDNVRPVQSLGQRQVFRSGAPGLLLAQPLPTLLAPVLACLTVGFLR
Description: Inhibition of bovine carbonic anhydrase IV (CA4) from bovine lung microsomes

[2] = biological target: Carbonic anhydrase 1 (Homo sapiens, UniProt P00915)
Carbonic anhydrase 1, sequence (P00915 whole entry): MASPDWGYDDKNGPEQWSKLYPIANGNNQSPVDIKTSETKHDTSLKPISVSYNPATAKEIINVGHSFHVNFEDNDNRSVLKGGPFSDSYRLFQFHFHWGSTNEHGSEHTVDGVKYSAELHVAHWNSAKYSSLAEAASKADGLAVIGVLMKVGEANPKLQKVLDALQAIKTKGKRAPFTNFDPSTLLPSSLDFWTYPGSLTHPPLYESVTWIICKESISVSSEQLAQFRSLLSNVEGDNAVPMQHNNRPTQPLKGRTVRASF
Description: Inhibition of human recombinant carbonic anhydrase I (CA1)

Ki [1]	Ki [2]	Compound
8 nM	300 nM	NS(=O)(=O)c1nnc(NC(=O)CCNC(=O)C(F)(F)C(F)(F)C(F)(F)C(F)(F)C(F)(F)C(F)(F)C(F)(F)C(F)(F)F)s1
24100 nM	135000 nM	NS(=O)(=O)c1ccc(COS(=O)(=O)C(F)(F)F)cc1
1040 nM	23400 nM	NS(=O)(=O)c1ccc(NS(=O)(=O)C(F)(F)C(F)(F)C(F)(F)C(F)(F)F)c(I)c1
900 nM	20300 nM	NS(=O)(=O)c1ccc(NS(=O)(=O)C(F)(F)C(F)(F)C(F)(F)C(F)(F)F)c(Br)c1
39 nM	6600 nM	NS(=O)(=O)c1ccc(NS(=O)(=O)c2ccc(NC(=O)c3c(F)c(F)c(F)c(F)c3F)cc2)cc1
50000 nM	81300 nM	NS(=O)(=O)c1ccc(CCNS(=O)(=O)C(F)(F)F)cc1
9 nM	45 nM	NS(=O)(=O)c1nc2ccc(NC(=O)C(F)(F)C(F)(F)C(F)(F)C(F)(F)C(F)(F)C(F)(F)C(F)(F)C(F)(F)F)cc2s1
500 nM	1450 nM	NS(=O)(=O)c1ccc(NS(=O)(=O)C(F)(F)C(F)(F)C(F)(F)C(F)(F)C(F)(F)C(F)(F)C(F)(F)C(F)(F)F)c(F)c1
9200 nM	20900 nM	NS(=O)(=O)c1ccc(CCOS(=O)(=O)C(F)(F)C(F)(F)C(F)(F)C(F)(F)F)cc1
8 nM	28 nM	NS(=O)(=O)c1nc2ccc(OS(=O)(=O)C(F)(F)C(F)(F)C(F)(F)C(F)(F)C(F)(F)C(F)(F)C(F)(F)C(F)(F)F)cc2s1
45000 nM	80000 nM	NS(=O)(=O)c1ccc(CCOS(=O)(=O)C(F)(F)F)cc1
43 nM	400 nM	NS(=O)(=O)c1cc(S(N)(=O)=O)c(NS(=O)(=O)C(F)(F)C(F)(F)C(F)(F)C(F)(F)F)cc1Cl
36 nM	4400 nM	NS(=O)(=O)c1ccc(Nc2ccnc(NC(=O)C(F)(F)C(F)(F)C(F)(F)C(F)(F)C(F)(F)C(F)(F)C(F)(F)C(F)(F)F)n2)cc1
160 nM	5100 nM	NS(=O)(=O)c1cc(S(N)(=O)=O)c(NS(=O)(=O)C(F)(F)C(F)(F)C(F)(F)C(F)(F)F)c(Cl)c1Cl
130 nM	810 nM	NS(=O)(=O)c1cc(S(N)(=O)=O)c(NC(=O)C(F)(F)C(F)(F)C(F)(F)C(F)(F)C(F)(F)C(F)(F)C(F)(F)C(F)(F)F)cc1Cl
900 nM	22000 nM	NS(=O)(=O)c1ccccc1NS(=O)(=O)C(F)(F)C(F)(F)C(F)(F)C(F)(F)F
13 nM	300 nM	NS(=O)(=O)c1nnc(NC(=O)C(F)(F)C(F)(F)C(F)(F)C(F)(F)C(F)(F)C(F)(F)C(F)(F)C(F)(F)F)s1
33 nM	3600 nM	NS(=O)(=O)c1cccc(NS(=O)(=O)c2ccc(NS(=O)(=O)C(F)(F)C(F)(F)C(F)(F)C(F)(F)C(F)(F)C(F)(F)C(F)(F)C(F)(F)F)cc2)c1
34 nM	4500 nM	NS(=O)(=O)c1ccc(Nc2ccnc(NS(=O)(=O)C(F)(F)C(F)(F)C(F)(F)C(F)(F)C(F)(F)C(F)(F)C(F)(F)C(F)(F)F)n2)cc1

Ki [1]	Ki [2]	Compound
62 nM	7700 nM	NS(=O)(=O)c1ccc(Nc2ccnc(NC(=O)c3c(F)c(F)c(F)c(F)c3F)n2)cc1
12500 nM	2550 nM	NS(=O)(=O)c1ccc(NS(=O)(=O)C(F)(F)C(F)(F)C(F)(F)C(F)(F)C(F)(F)C(F)(F)C(F)(F)C(F)(F)F)c(Br)c1
1200 nM	1500 nM	NS(=O)(=O)c1ccccc1NS(=O)(=O)C(F)(F)C(F)(F)C(F)(F)C(F)(F)C(F)(F)C(F)(F)C(F)(F)C(F)(F)F
18 nM	330 nM	Cn1nc(S(N)(=O)=O)s/c1=N/C(=O)C(F)(F)C(F)(F)C(F)(F)C(F)(F)C(F)(F)C(F)(F)C(F)(F)C(F)(F)F
620 nM	2500 nM	NS(=O)(=O)c1ccc(NC(=O)C(F)(F)C(F)(F)C(F)(F)C(F)(F)C(F)(F)C(F)(F)C(F)(F)C(F)(F)F)c(Br)c1
30 nM	6000 nM	NS(=O)(=O)c1ccc(Nc2ccnc(NS(=O)(=O)C(F)(F)C(F)(F)C(F)(F)C(F)(F)F)n2)cc1
10900 nM	15000 nM	NS(=O)(=O)c1ccc(COS(=O)(=O)C(F)(F)C(F)(F)C(F)(F)C(F)(F)C(F)(F)C(F)(F)C(F)(F)C(F)(F)F)cc1
24 nM	325 nM	NS(=O)(=O)c1ccc(Nc2ccnc(NS(=O)(=O)c3c(F)c(F)c(F)c(F)c3F)n2)cc1
500 nM	1000 nM	NS(=O)(=O)c1ccc(NNS(=O)(=O)c2c(F)c(F)c(F)c(F)c2F)cc1
32 nM	1500 nM	NS(=O)(=O)c1nnc(NS(=O)(=O)c2ccc(NC(=O)c3c(F)c(F)c(F)c(F)c3F)cc2)s1
255 nM	13000 nM	NS(=O)(=O)c1ccc(CNS(=O)(=O)C(F)(F)C(F)(F)C(F)(F)C(F)(F)F)cc1
30 nM	3000 nM	NS(=O)(=O)c1cccc(NS(=O)(=O)c2ccc(NC(=O)C(F)(F)C(F)(F)C(F)(F)C(F)(F)C(F)(F)C(F)(F)C(F)(F)C(F)(F)F)cc2)c1
155 nM	890 nM	NS(=O)(=O)c1cc(S(N)(=O)=O)c(NS(=O)(=O)C(F)(F)C(F)(F)C(F)(F)C(F)(F)C(F)(F)C(F)(F)C(F)(F)C(F)(F)F)cc1Cl
600 nM	15000 nM	NS(=O)(=O)c1ccc(NNS(=O)(=O)C(F)(F)C(F)(F)C(F)(F)C(F)(F)F)cc1
10600 nM	24500 nM	NS(=O)(=O)c1ccc(COS(=O)(=O)C(F)(F)C(F)(F)C(F)(F)C(F)(F)F)cc1
24500 nM	138000 nM	NS(=O)(=O)c1ccc(CNS(=O)(=O)C(F)(F)F)cc1
935 nM	1600 nM	NS(=O)(=O)c1cccc(NC(=O)C(F)(F)C(F)(F)C(F)(F)C(F)(F)C(F)(F)C(F)(F)C(F)(F)C(F)(F)F)c1
520 nM	950 nM	NS(=O)(=O)c1ccc(CCNC(=O)C(F)(F)C(F)(F)C(F)(F)C(F)(F)C(F)(F)C(F)(F)C(F)(F)C(F)(F)F)cc1
705 nM	1000 nM	NS(=O)(=O)c1ccc(CNS(=O)(=O)C(F)(F)C(F)(F)C(F)(F)C(F)(F)C(F)(F)C(F)(F)C(F)(F)C(F)(F)F)cc1

Further lines, the compound ahead of its results:

Compound	Ki [1]	Ki [2]
NS(=O)(=O)c1ccc(NC(=O)c2c(F)c(F)c(F)c(F)c2F)c(I)c1	1040 nM	2560 nM
NS(=O)(=O)c1ccc(NS(=O)(=O)c2c(F)c(F)c(F)c(F)c2F)c(F)c1	140 nM	710 nM
NS(=O)(=O)c1cccc(NS(=O)(=O)c2ccc(NS(=O)(=O)c3c(F)c(F)c(F)c(F)c3F)cc2)c1	16 nM	150 nM
NS(=O)(=O)c1ccccc1NS(=O)(=O)C(F)(F)F	97000 nM	175000 nM
Cn1nc(S(N)(=O)=O)s/c1=N/S(=O)(=O)c1ccc(NS(=O)(=O)c2c(F)c(F)c(F)c(F)c2F)cc1	9 nM	21 nM
NS(=O)(=O)c1nc2ccc(NC(=O)c3c(F)c(F)c(F)c(F)c3F)cc2s1	8 nM	120 nM
NS(=O)(=O)c1cccc(NS(=O)(=O)C(F)(F)F)c1	95300 nM	188000 nM
NS(=O)(=O)c1ccccc1NS(=O)(=O)c1c(F)c(F)c(F)c(F)c1F	680 nM	1390 nM
NS(=O)(=O)c1ccc(NS(=O)(=O)c2c(F)c(F)c(F)c(F)c2F)c(Br)c1	550 nM	1500 nM
NS(=O)(=O)c1nc2ccc(OC(=O)c3c(F)c(F)c(F)c(F)c3F)cc2s1	9 nM	105 nM
NS(=O)(=O)c1cccc(NS(=O)(=O)c2c(F)c(F)c(F)c(F)c2F)c1	500 nM	1100 nM
NS(=O)(=O)c1ccc(COC(=O)c2c(F)c(F)c(F)c(F)c2F)cc1	410 nM	1200 nM
NS(=O)(=O)c1ccc(CNC(=O)c2c(F)c(F)c(F)c(F)c2F)cc1	350 nM	980 nM
NS(=O)(=O)c1ccc(NC(=O)c2c(F)c(F)c(F)c(F)c2F)c(F)c1	185 nM	760 nM
NS(=O)(=O)c1cc(S(N)(=O)=O)c(NS(=O)(=O)c2c(F)c(F)c(F)c(F)c2F)cc1Cl	26 nM	300 nM
NS(=O)(=O)c1nc2ccc(OCCOS(=O)(=O)c3c(F)c(F)c(F)c(F)c3F)cc2s1	7 nM	18 nM
NS(=O)(=O)c1cc(S(N)(=O)=O)c(NC(=O)c2c(F)c(F)c(F)c(F)c2F)cc1Cl	54 nM	750 nM
NS(=O)(=O)c1cc(S(N)(=O)=O)c(NS(=O)(=O)c2c(F)c(F)c(F)c(F)c2F)c(Cl)c1Cl	142 nM	1500 nM
NS(=O)(=O)c1nnc(NS(=O)(=O)C(F)(F)F)s1	600 nM	59800 nM
NS(=O)(=O)c1nnc(NC(=O)CCNC(=O)c2c(F)c(F)c(F)c(F)c2F)s1	10 nM	300 nM
Cn1nc(S(N)(=O)=O)s/c1=N/S(=O)(=O)c1ccc(NC(=O)c2c(F)c(F)c(F)c(F)c2F)cc1		1600 nM
NS(=O)(=O)c1nc2ccc(OCCOS(=O)(=O)C(F)(F)F)cc2s1	7 nM	50 nM
NS(=O)(=O)c1ccc(NS(=O)(=O)c2ccc(NS(=O)(=O)c3c(F)c(F)c(F)c(F)c3F)cc2)cc1	15 nM	125 nM
NS(=O)(=O)c1nc2ccc(OCCOC(=O)c3c(F)c(F)c(F)c(F)c3F)cc2s1	11 nM	65 nM
NS(=O)(=O)c1cc(S(N)(=O)=O)c(NS(=O)(=O)C(F)(F)F)c(Cl)c1Cl	725 nM	5500 nM
NS(=O)(=O)c1ccc(CCNS(=O)(=O)c2c(F)c(F)c(F)c(F)c2F)cc1	230 nM	760 nM
NS(=O)(=O)c1ccc(NS(=O)(=O)C(F)(F)F)c(Br)c1	47000 nM	200000 nM
NS(=O)(=O)c1ccc(CNS(=O)(=O)c2c(F)c(F)c(F)c(F)c2F)cc1	240 nM	790 nM
